Entries after “also recorded” stand apart in the source; their conditions may differ.
Assays:
'mutant atbg1' [1] = assay: Stomatal size of 'mutant atbg1' at night after ABA treatment; assay type: in vivo, Arabidopsis thaliana; settings: 10 μM and 50 μM ABA at 23 o'clock, measured at 24 o'clock, n=200
Procedure: (§1) Particularly, the transgenic plant was cultured at 20° C. with 70% relative humidity under 16/8 hour-light/dark cycle and the stomatal sizes were measured at noon and midnight (n=150) (FIG. 13).
(§2) To investigate the effect of exogenous ABA on stomatal closure, the ‘mutant atbg1’ plant was treated with 10 μM and 50 μM of ABA at 23 o'clock and stomatal sizes were measured at 24 o'clock (FIG. 14). Control group was treated with 100 μM of NAME (L-nitroargininemethylester), known as […], during the time of stomatal disclosure, that is for 10 hours from 4 o'clock, and stomatal sizes were measured at midnight.

'mutant atbg1' [2] = assay: Leaf colour of 'mutant atbg1' after exogenous ABA; assay type: in vivo, Arabidopsis thaliana; settings: exogenous ABA applied to one week cultivated 'mutant atbg1', 3 more days of culture
Text: Exogenous ABA was applied to one week cultivated ‘mutant atbg1’, followed by culture for 3 more days.

wild type = assay: Stomatal size of wild type at midnight after NAME treatment; assay type: in vivo, Arabidopsis thaliana; settings: 100 μM NAME for 10 hours from 4 o'clock, measured at midnight
Procedure: as §1, §2

AtBG1:HA = assay: AtBG1 glycosylation in protoplasts, blotting with anti-HA antibody; assay type: cell-based, Arabidopsis thaliana; settings: anti-HA blot
Text: To confirm the above result that AtBG1 localizes to ER, the present inventors examined AtBG1 glycosylation. Glycosylation of protein produces glycan and this glycan moiety of the protein localizing to the ER is sensitive to both endo-H and PNGase F, meaning the glycan moiety is easily digested by endo-H and PNGase F enzyme activities (Kuznetsov G. et al., J. Biol. Chem. 268: 2001, 1993). Tunicamycin is an inhibitor of the glycosylation.
Protein extract obtained from protoplasts of AtBG1:HA transfected plant and treated with endo-H and PNGase F (not treated with tunicamycin), protein extract obtained from protoplasts of tunicamycin treated Arabidopsis thaliana transformed with AtBG1 and protein extract obtained from protoplasts of tunicamycin-non-treated Arabidopsis thaliana transformed with AtBG1 were examined by blotting using anti-HA antibody.

[3] = ABA-GE hydrolysis by immunopurified AtBG1 proteins, ABA fraction by HPLC and ELISA; assay type: biochemical, Arabidopsis thaliana; settings: 100 mM citrate buffer pH 5.5, 37° C., one and half hours

## CC1=CC(=O)CC(C)(C)[C@@]1(O)/C=C/C(C)=C\C(=O)O [ABA, abscisic acid]
'mutant atbg1' [1]
  stomatal closure in the night: induced stomatal closure in the night
'mutant atbg1' [2]
  leaf colour phenotype: yellow leaf turned into normal green

## COC(=O)[C@@H](N)CCCNC(=N)N[N+](=O)[O-] [NAME, L-nitroargininemethylester]
Wild type
  stomatal closure: defects in stomatal closure

## Tunicamycin
AtBG1:HA
  size of AtBG1:HA versus tunicamycin-non-treated protoplasts: smaller

B1: AtBG1:HA: HA (hemagglutinin) tagged wild type AtBG1, Arabidopsis thaliana β-glucosidase 1 (protein)
chain: QGPVCGAGLPDKFSRLNFPEGFIWGTATAAFQVEGAVNEGCRGPSMWDTFTKKFPHRCENHNADVAVDFYHRYKEDIQLMKDLNTDAFRLSIAWPRIFPHGRMSKGISKVGVQFYHDLIDELLKNNIIPLVTVFHWDTPQDLEDEYGGFLSGRIVQDFTEYANFTFHEYGHKVKHWITFNEPWVFSRAGYDNGKKAPGRCSPYIPGYGQHCQDGRSGYEAYQVSHNLLLSHAYAVDAFRNCKQCAGGKIGIAHSPAWFEPQDLEHVGGSIERVLDFILGWHLAPTTYGDYPQSMKDRVGHRLPKFTEAEKKLLKGSTDYVGMNYYTSVFAKEISPDPKSPSWTTDSLVDWDSKSVDGYKIGSKPFNGKLDVYSKGLRYLLKYIKDNYGDPEVIIAENGYGEDLGEKHNDVNFGTQDHNRKYYIQRHLLSMHDAICKDKVNVTGYFVWSLMDNFEWQDGYKARFGLYYIDFQNNLTRHQKVSGKWYSEFLKPQFPTSKLREEL
modifications: left off: small tags and cut ends
[3]
  ABA generated from ABA-GE (HPLC peak / ELISA detection): novel peaks at the position for ABA; also recorded: hydrolyzes ABA-GE to form ABA
[3]; listed as wild type AtBG1 protein
  ABA generated from ABA-GE (HPLC peak / ELISA detection): high level of ABA

B2: AtBG1[E207Q]:HA: HA tagged AtBG1 with substitution mutation at position 207, an active site of β-glycosidase (protein, UniProt Q9SE50 27-528, looked up, variant E207Q)
Beta-D-glucopyranosyl …: QGPVCGAGLPDKFSRLNFPEGFIWGTATAAFQVEGAVNEGCRGPSMWDTFTKKFPHRCENHNADVAVDFYHRYKEDIQLMKDLNTDAFRLSIAWPRIFPHGRMSKGISKVGVQFYHDLIDELLKNNIIPLVTVFHWDTPQDLEDEYGGFLSGRIVQDFTEYANFTFHEYGHKVKHWITFNQPWVFSRAGYDNGKKAPGRCSPYIPGYGQHCQDGRSGYEAYQVSHNLLLSHAYAVDAFRNCKQCAGGKIGIAHSPAWFEPQDLEHVGGSIERVLDFILGWHLAPTTYGDYPQSMKDRVGHRLPKFTEAEKKLLKGSTDYVGMNYYTSVFAKEISPDPKSPSWTTDSLVDWDSKSVDGYKIGSKPFNGKLDVYSKGLRYLLKYIKDNYGDPEVIIAENGYGEDLGEKHNDVNFGTQDHNRKYYIQRHLLSMHDAICKDKVNVTGYFVWSLMDNFEWQDGYKARFGLYYIDFQNNLTRHQKVSGKWYSEFLKPQFPTSKLREEL
modifications: HA tag
[3]
  ABA generated from ABA-GE (HPLC peak / ELISA detection): novel peaks at the position for ABA
[3]; ABA peaks quantified by ELISA with anti-ABA antibody
  amount of ABA released from ABA-GE, relative to that of the wild type: 20%

Source: patent US7795498B2, “Use of AtBG1 gene for the generation of transgenic plants with increased resistance to various abiotic stress” (Postech Foundation, priority 2004, dated 2010)
